Test results reported in US20100028485A1, “TALAROMYCES EMERSONII ENZYME SYSTEMS” (priority 2006, published 2010).

Columns and labels:
Format in all cases: biochemical, Talaromyces emersonii
EG V = assay: Effects of metal ions, chemical modification reagents, detergents and potential inhibitors on EG V; details: for EG V activity after protection experiment (control = 100.0): 1st incubation (30 min) enzyme + reagent, 2nd incubation (30 min) + NBS; for EG V activity, Enzyme + reagent (control = 100.0): Preincubation of enzyme with reagent for 30 min (50 C) prior to addition of substrate; for EG V activity, Substrate + reagent (control = 100.0): Preincubation of substrate with reagent for 30 min (50 C) prior to addition of enzyme
Protocol: (§1) Substrate specificity on various polysaccharides and synthetic glycosides was evaluated by 15 measuring activity against a wide variety of carbohydrates (BBG, lichenan, CMC, other polysaccharides and synthetic glycosides) using the normal β-glucanase assay procedure. • Effects Of Metal Ions, Chemical Modification Reagents And Potential Inhibitors A range of monovalent, divalent and heavy metal ions, at final assay concentrations of 1.0 mM, were investigated for their potential effects on the activities of EG V, EG VI and EG VII, by incubating the enzymes with the chemicals and then conducting the normal enzyme assay. Finally, the inhibitor effects of glycosides, such as disaccharides, lactones and flavanoid glycosides on the purified enzymes were examined. Specified concentrations of each glycoside were included in normal assay cocktails and residual activity determined by comparison with controls (no glycoside present).
(§2) Activity was expressed as a % relative to a control (no metal ion present in incubation mixture). In general, heavy metal ions are thought to inactivate enzymes by forming covalent salts with cysteine, histidine or carboxyl groups. […] A selection of reagents known to modify amino acid R-groups in proteins were tested for their effects on EG V, EG VI and EG VII, both in the absence and presence of substrate (substrate-protective effects could be observed in this manner) (see Table 6).

EG VI = assay: Effects of metal ions, chemical modification reagents, detergents and potential inhibitors on EG VI; details: for EGVI activity after protection experiment (control = 100.0): 1st incubation (30 min) enzyme + reagent, 2nd incubation (30 min) + NBS; for EV VI activity, Enzyme + reagent (control = 100.0): Preincubation of enzyme with reagent for 30 min (50 C) prior to addition of substrate; for EGVI activity, Substrate + reagent (control = 100.0): Preincubation of substrate with reagent for 30 min (50 C) prior to addition of enzyme; for increase in activity of EG VI: 1 mM metal ion, relative to control without metal ion
Protocol: as §1, §2

EG VII = assay: Effects of metal ions, chemical modification reagents, detergents and potential inhibitors on EG VII; details: for EG VII activity after protection experiment (control = 100.0): 1st incubation (30 min) enzyme + reagent, 2nd incubation (30 min) + NBS; for EG VII activity, Enzyme + reagent (control = 100.0): Preincubation of enzyme with reagent for 30 min (50 C) prior to addition of substrate; for EG VII activity, Substrate + reagent (control = 100.0): Preincubation of substrate with reagent for 30 min (50 C) prior to addition of enzyme
Protocol: as §1, §2

EG V, EG VI and EG VII = assay: Effects of metal ions, reagents, phenolics and glycosides stated for all three enzymes; details: for effect of phenolic substances on enzyme activity: pre-incubation of enzyme with compound in the absence of substrate; for effect of metal ion on activity of all three enzymes: 1 mM metal ion
Protocol: as §1, §2

[1] = 1 mM metal ion, relative to control without metal ion

Row | EG V activity, Enzyme + reagent (control = 100.0) (EG V) | EV VI activity, Enzyme + reagent (control = 100.0) (EG VI) | EG VII activity, Enzyme + reagent (control = 100.0) (EG VII) | SMILES | EG V activity, Substrate + reagent (control = 100.0) (EG V) | EGVI activity, Substrate + reagent (control = 100.0) (EG VI) | EG VII activity, Substrate + reagent (control = 100.0) (EG VII) | other results
1 | 218.9 | 514.3 | 575.0 | OC(CS)C(O)CS (racemic) [DL-DTT] | 264.3 | 915.5 | 348.6 | EG V activity after protection experiment (control = 100.0) (EG V): 204.3; EGVI activity after protection experiment (control = 100.0) (EG VI): 140.0; EG VII activity after protection experiment (control = 100.0) (EG VII): 94.6
2 | – | – | – | Oc1cc(O)c2c(c1)O[C@H](c1ccc(O)c(O)c1)[C@@H](O)C2 [(+)catechin] | – | – | – | effect of phenolic substances on enzyme activity (EG V, EG VI and EG VII): did not have a marked inhibitory effect
3 | – | – | – | Oc1cc(O)c2c(c1)O[C@H](c1ccc(O)c(O)c1)[C@H](O)C2 [(−)epicatechin] | – | – | – | effect of phenolic substances on enzyme activity (EG V, EG VI and EG VII): did not have a marked inhibitory effect
4 | – | – | – | [Ag+] [Ag^+] | – | – | – | effect of metal ion on activity of all three enzymes (EG V, EG VI and EG VII): markedly decreased activity
5 | – | – | – | [Ba+2] [Ba^2+] | – | – | – | decrease in activity of EG V (EG V; [1]): 16.5%; increase in activity of EG VI (EG VI): 37.6%
6 | – | – | – | [Ca+2] [Ca^2+] | – | – | – | decrease in activity of EG V (EG V; [1]): 21.5-24.6%; increase in activity of EG VI (EG VI): 10%; enhancement of EG VII activity by SO4^2− salt relative to corresponding Cl^− salt (EG VII; 1 mM): ~2 fold
7 | 163.8 | 170.4 | 196.5 | N[C@@H](CS)C(=O)O [Cysteine] | 237.8 | 370.20 | 367.7 | EG V activity after protection experiment (control = 100.0) (EG V): 117.0; EGVI activity after protection experiment (control = 100.0) (EG VI): 217.0; EG VII activity after protection experiment (control = 100.0) (EG VII): 167.0
8 | 125.5 | 124.3 | 194.0 | C[S+](C)[O-] [Dimethylsuphoxide] | 93.6 | 141.7 | 100.0 | –
9 | 270.6 | 657.2 | 773.8 | O[C@H](CS)[C@@H](O)CS [Dithioerythritol] | 271.9 | 917.90 | 360.9 | –
10 | – | – | – | [Hg+2] [Hg^2+] | – | – | – | effect of metal ion on activity of all three enzymes (EG V, EG VI and EG VII): Almost total inhibition
11 | – | – | – | [K+] [K^+] | – | – | – | increase in activity of EG VII (EG VII): 20%
12 | – | – | – | [Mo] [Mo^6+] | – | – | – | effect of metal ion on activity of all three enzymes (EG V, EG VI and EG VII): enhanced the activity
13 | 0.0 | 0.0 | 0.0 | O=C1CCC(=O)N1Br [N-Bromosuccinimide (NBS), N-Bromosuccinimide] | 0.0 | 0.0 | 0.0 | EG V activity after protection experiment (control = 100.0) (EG V): 0.0; EGVI activity after protection experiment (control = 100.0) (EG VI): 0.0; EG VII activity after protection experiment (control = 100.0) (EG VII): 0.0
14 | – | – | – | CCN1C(=O)C=CC1=O [N-ethylmaleimide] | – | – | – | inhibition by sulphydryl reagents (EG V, EG VI and EG VII; in the presence or absence of substrate): little or no inhibition
15 | – | – | – | [Na+] [Na^+] | – | – | – | increase in activity of EG V (EG V; [1]): > 39%
16 | 96.1 | 125.0 | 194.0 | [BH4-].[Na+] [Sodium borohydride] | 81.5 | 104.8 | 82.8 | –
17 | 211.1 | 187.1 | 188.1 | O=C(O)CS [Thioglycolic acid] | 148.1 | 269.0 | 150.0 | –
18 | 162.7 | 280.0 | 305.9 | CC[n+]1ccc(-c2cccc(S(=O)(=O)[O-])c2)o1 [Woodward's Reagent K] | 121.1 | 266.7 | 143.0 | –

Row | SMILES | EG V activity, Enzyme + reagent (control = 100.0) (EG V) | EV VI activity, Enzyme + reagent (control = 100.0) (EG VI) | EG VII activity, Enzyme + reagent (control = 100.0) (EG VII) | EG V activity, Substrate + reagent (control = 100.0) (EG V) | EGVI activity, Substrate + reagent (control = 100.0) (EG VI) | EG VII activity, Substrate + reagent (control = 100.0) (EG VII) | other results
19 | [Cl-].c1ccc(-c2nn(-c3ccccc3)[n+](-c3ccccc3)n2)cc1 [2,3,5-Triphenyltetrazolium Chloride] | 97.5 | 97.6 | 98.5 | 89.1 | 97.4 | 100.0 | –
20 | [Na+].[O-][I+3]([O-])([O-])[O-] [Sodium periodate] | 181.0 | 357.1 | 300.0 | 283.3 | 1001.2 | 469.7 | –
